Results reported in patent publication EP0519427A2, “N-substituted-3-iodopropiolamide, production and use thereof” (priority 1991, dated 1992).

Tests used:
[1] = test system: Aspergillus niger van Tieghem IFO 6341; assay: Fungicide activity for wood fungicide (rating of fungi growth on treated wood); assay type: cell-based; conditions: beech specimens dipped 3 min in fungicide solution, 4 weeks culture; rating 0 (no growth) to 3; mean of 6 specimens
Experimental: (§1) This test was conducted according to Specification No.2 of Japan Wood Preserving Association, enacted in 1979 and titled "Test methods of fungicide activity for wood fungicide".
(§2) • ① Aspergillus niger van Tieghem IFO 6341 = ATCC 6275 • ② Penicillium funiculosum Thom (formerly : Penicillium luteum Zukal) IFO 6345 = ATCC 9644 • ③ Rhizopus javanicus Takeda (formerly : Rhizopus nigricans Ehrenberg S.N. 32) IFO 6354 • ④ Aureobasidium pullulans (de Bary) Arnaud IFO 6353 = IAM (H. Iizuka, F-24) • ⑤ Gliocladium virens Miller, Gidden & Fosteb IFO 6355 = ATCC 9645 (formerly : Trichoderma viride, T.I.)
(§3) The fungi ① , ② , ③ and ⑤ are classified as fungi imperfecti, and the fungus ④ as blue stain fungus.
(§4) The Culture medium comprised the potato-sap agar culture medium (specified in the Japan Industrial Standard (JIS) Z 2911- 1960) of 50 ml, put in the conical flask of 100 ml, sterilized by steam at 1.4-1.6 kgf/cm² .G (137.2-156.8 KPa) for 30 minutes.
(§5) The fungi to be used were inoculated into the culture medium specified in the previous section and were cultured at 26 ± 2 °C under the relative humidity of 70-80 % for two weeks.
(§6) The potato sap of 50 ml, sterilized, cooled to room temperature and to which dioctyl sodium sulfosuccinate, a wetting agent, was added so as to become 0.005 %, was dropped to the fully breeding fungi layer, and was agitated with a platinum spatula in such a way that the spore was torn off. The resulting liquid filtered by sterilized gauze was the spore suspension.
(§7) 3-5-1 A Petri dish measured 90-100 mm in diameter and 20 mm in height.
(§8) 3-5-2 Agar liquid (which has no nutrients) of 2 % sterilized by steam was dropped onto the Petri dish sterilized by dry heat, and then was solidified.
(§9) 3-5-3 Three mm diameter sterilized glass bars or plastic nets made of polypropylene, etc. were placed to prevent the test specimens from touching with agar directly.
(§10) 3-6-1 The type of trees for wood specimens was beech. The cross section was of grain face, and the dimension was 20 mm wide 3 mm thick and 50 mm long.
(§11) 3-6-2 Wood specimens were supplied with nutrients in such a way that they were dipped into the potato-sap (the one in the section 3-2, but agar was not added) for 3 minutes.
(§12) 3-6-3 Nutrient-supplied wood specimens, after drying at 60 °C, were used for testing immediately. They were temporarily stored at 0 °C, but they were served to tests as soon as possible.
(§13) The test specimens were of two types, treated and untreated speciments. The treated specimens referred to the one treated with fungicide. The untreated specimens were of two types, the one really untreated and the other treated with solvent only.
(§14) 3-7-2-1 Nutrients-supplied wood specimens were dried at 60 ± 2 °C, and then their weights (W₀) were measured. Test specimens of 10-20 pieces were piled up in a one liter beaker in such a way that two specimens constant space apart from each other were alternately put on the other two specimens also constant space apart from each other. On the top of the two specimens, a weight was placed. Through the test specimens thus arranged, the fungicide solution was introduced. The level of the fungicide solution was one centimeter above the top specimens. The test specimens were dipped for three minutes after the fungicide solution introduction.
(§15) After finishing dipping, the test specimens were wiped softly, and then the weights (W₁) were measured immediately. As control experiment, the same procedure as the above was done using solvent without fungicide.
(§16) 3-7-2-2 The amounts of solution pick-up and fungicide pick-up were calculated with the following equations: The amount of solution absorption: RL = W₁ - W₀ [formula] The amount of fungicide absorption: Rc = RL × fungicide concentration [formula] 3-7-2-3 Wood specimens treated were placed without contacting each other, then were air-dried for two days, and then served as the treated test specimens. […]

[2] = test system: Gliocladium virens Miller, Gidden & Fosteb IFO 6355; assay: as above; assay type: cell-based; conditions: beech specimens dipped 3 min in fungicide solution, 4 weeks culture; rating 0 (no growth) to 3; mean of 6 specimens
Experimental: as §1, §2, §3, §4, §5, §6, §7, §8, §9, §10, §11, §12, §13, §14, §15, §16

[3] = test system: Penicillium funiculosum Thom IFO 6345; assay: as above; assay type: cell-based; conditions: beech specimens dipped 3 min in fungicide solution, 4 weeks culture; rating 0 (no growth) to 3; mean of 6 specimens
Experimental: as §1, §2, §3, §4, §5, §6, §7, §8, §9, §10, §11, §12, §13, §14, §15, §16

[4] = test system: Rhizopus javanicus Takeda IFO 6354; assay: as above; assay type: cell-based; conditions: beech specimens dipped 3 min in fungicide solution, 4 weeks culture; rating 0 (no growth) to 3; mean of 6 specimens
Experimental: as §1, §2, §3, §4, §5, §6, §7, §8, §9, §10, §11, §12, §13, §14, §15, §16

[5] = test system: Coptofermes formosanus SHIRAKI; assay: Anti-termite activity, contact toxicity on treated quartz sand; assay type: in vivo
Experimental: This test was conducted on the basis of the method described in Specification No.11 of Japan Wood Preserving Association, enacted in 1981 and titled "The test methods of anti-termite activity for anti-termite agent used in the coating, spraying and dipping treatment, (1) Laboratory test methods".
The termite to be used was Coptofermes formosanus SHIRAKI ("ieshiroari").
4-2-1 The treated quartz sand was prepared as follows : The quartz sand, which passed through a sieve with 60 mesh screen, of 3 g was mixed with the BACTRO-AGAR solution of 1 ml with good agitation. Then, water content was adjusted to 5 %.
4-2-2 The test quartz sand was prepared as follows : The anti-termite agent solution of intended concentration (ppm) was added to the above treated quartz sand, then was mixed, and then was allowed to stand for 14 days to vaporize solvents.
4-2-3 The test quartz sand of 4 g were put into a Petri dish (6 cm in diameter) sterilized with dry heat.
4-2-4 Ten termite workers were randomly sampled from their nest, and then put on the quartz sand.
4-2-5 Each Petri dish was placed in a vessel containing water in the bottom, and then the vessel was allowed to stand in the constant temperature room at 28 ± 2 °C for 14 days. The number of the dead termites was observed and recorded. The first day : every 2 hours for 8 hours. After the second day : every 24 hour.
4-2-6 Test was repeated three times for each concentration of anti-termite agent solution.
4-3-1 Each time when observing, the number of healthy termites and dead termites were recorded.
4-3-2 The results are shown below in Table 4. […]

[6] = concentration 100 ppm, term of contact 1 day
[7] = concentration 100 ppm, term of contact 2 days
[8] = concentration 100 ppm, term of contact 3 days
[9] = concentration 100 ppm, term of contact 5 days
[10] = concentration 1000 ppm, term of contact 1 day
[11] = concentration 1000 ppm, term of contact 2 days
[12] = concentration 1000 ppm, term of contact 3 days
[13] = concentration 1000 ppm, term of contact 5 days

| SMILES | Average rating value, A₁ : Aspergillus Niger (IFO 6341) [1] | Average rating value, A₅ : Gliocladium virens (IFO 6355) [2] | Average rating value, A₂ : Penicillium funiculosum (IFO 6345) [3] | Average rating value, A₃ : Rhizopus javanicus (IFO 6354) [4] | Death rate (%) [5, 6] [%] | Death rate (%) [5, 7] [%] | Death rate (%) [5, 8] [%] | Death rate (%) [5, 9] [%] | Death rate (%) [5, 10] [%] | Death rate (%) [5, 11] [%] | Death rate (%) [5, 12] [%] | Death rate (%) [5, 13] [%] |
| --- | --- | --- | --- | --- | --- | --- | --- | --- | --- | --- | --- | --- |
| CCCCCCCNC(=O)C#CI [Example 9, N-(n-Heptyl)-3-iodopropiolamide] | 1.7 | 1.5 | 1.0 | 3.0 |  |  |  |  |  |  |  |  |
| CC(C)CNC(=O)C#CI [Example 6, N-Isobutyl-3-iodopropiolamide] | 0.0 | 0.0 | 0.0 | 3.0 |  |  |  |  |  |  |  |  |
| CCCCCCCCCNC(=O)C#CI [Example 11, N-(n-Nonyl)-3-iodopropiolamide] | 3.0 | 2.8 | 1.8 | 3.0 |  |  |  |  |  |  |  |  |
| CCCCCNC(=O)C#CI [Example 7, N-(n-Pentyl)-3-iodopropiolamide] | 0.2 | 1.8 | 0.2 | 3.0 |  |  |  |  |  |  |  |  |
| CCCCCCNC(=O)C#CI [Example 8, N-(n-Hexyl)-3-iodopropiolamide] | 0.3 | 0.2 | 0.0 | 3.0 | 0 | 0 | 20 | 100 | 0 | 0 | 70 | 100 |
| CCCCNC(=O)C#CI [Example 4, N-(n-Butyl)-3-iodopropiolamide] | 0.0 | 1.0 | 0.0 | 0.0 | 0 | 0 | 30 | 100 | 0 | 30 | 100 | 100 |
| CCCCCCCCCCNC(=O)C#CI [Example 2, N-(n-Decyl)-3-iodopropiolamide] | 3.0 | 1.3 | 2.0 | 3.0 |  |  |  |  |  |  |  |  |
| CCCCCCCCNC(=O)C#CI [Example 10, N-(n-Octyl)-3-iodopropiolamide] | 2.7 | 2.2 | 0.3 | 3.0 |  |  |  |  |  |  |  |  |
| CCC(C)NC(=O)C#CI (stereo not shown) [Example 5, N-(sec-Butyl)-3-iodopropiolamide] | 0.0 | 1.3 | 0.0 | 3.0 |  |  |  |  |  |  |  |  |
| CC(C)(C)NC(=O)C#CI [Example 1, N-(tert-Butyl)-3-iodopropiolamide] | 0.0 | 0.0 | 0.0 | 2.0 | 0 | 0 | 30 | 100 | 0 | 50 | 100 | 100 |
